Data on eight molecules can be found in paper PMC9701195, “Structural basis for lipid and copper regulation of the ABC transporter MsbA” (Nature Communications, 2022).

Read-outs that look alike come from different tables or passages of the source.

In data set [1] the target is T1, MsbA (Escherichia coli, UniProt P60752).
T1 construct: full length, TEV-cleavable N-terminal His6 tag cut (intact native N-terminus MHND...), expressed in E. coli BL21-AI, delipidated, homodimer in C10E5
Description: biochemical. Also on record: native mass spectrometry lipid titration, sequential lipid binding model, mole fractions of apo and lipid-bound MsbA. Particulars: first lipid; MsbA partially loaded with copper(II); read-out: KD1. The procedure: Lipids were prepared as previously described, in which lipids dissolved in chloroform were dried under nitrogen flow placed under vacuum overnight followed by dissolving in water. The concentration of MsbA was determined using a DC protein assay (BioRad) with bovine serum albumin as the standard. MsbA was incubated with lipids at varying concentrations and mixed with 200 mM ammonium acetate supplemented with 2x CMC lauryldimethylamine oxide (LDAO) at 1:1 volume ratio. Samples were incubated in the nano electrospray ionization source chamber for a minute to reach equilibrium prior to data acquisition. These samples analyzed on Orbitrap Exactive Plus EMR mass spectrometer (Thermo Scientific) operating at identical settings as described above. The mass spectra for each titration event were obtained in triplicate. The mass spectra were deconvoluted using UniDec[55] and the resulting peak intensities for apo and lipid-bound protein were determined. The relative abundance for each species was determined by dividing the peak intensity by the total intensity to convert to mole fraction for each independent experiment. For MsbA (P) binding the N^th lipid (Ln), we applied the following sequential lipid binding model: PLn−1+L⇔KAPLn where: KAn=PLn/[PLn−1]L To better understand MsbA-lipid interactions, we determined equilibrium binding constants for MsbA binding to different lipids. For these studies, we selected 1,1′,2,2′-tetraoleoyl-cardiolipin (TOCDL, 72:4) or phosphatidic acid (PA), phosphatidylcholine (PC), phosphatidylethanolamine (PE), phosphatidylglycerol (PG), and phosphatidylserine (PS) containing the acyl chain composition, 1-palmitoyl-2-oleoyl (PO, 16:0-18:1). We also included 3-deoxy-D-manno-oct-2-ulosonic acid (Kdo)2-lipid A (KDL), an LPS precursor known to stimulate MsbA ATPase activity[22]–[24]. Except for PC, these lipids are found in E. coli[40]. MsbA partially and fully loaded with copper(II) was titrated with each lipid followed by recording their native mass spectra (Supplementary Figs. 3–6). The mole fractions of apo and lipid bound states of MsbA were extracted from the deconvoluted MS data and used to determine the equilibrium dissociation constant (KDN) for the Nth binding event (Supplementary Tables 4–5). […] The two tightest binding lipids for MsbA loaded with copper(II) were TOCDL (KD1 = 1.6 µM) and KDL (KD1 = 0.6 µM). POPG binding affinities were largely independent of the copper(II) bound state of MsbA. […] For MsbA with reduced copper(II) binding, additional 1 mM MgCl2 was added to all buffer and MsbA solution in the purification step using Ni-NTA beads. Copper(II) saturated MsbA was obtained by adding 20 uM copper (II) acetate then buffer exchanged using Bio-Spin column to remove excess copper(II). […]

The target of data set [2] is T1, MsbA. The data set is described as follows: cryoEM structure […] Å and native MS. Format: binding. Particulars: outward-facing, with KDL and copper(II), NBD site.
Data set [3] addresses T1, MsbA. Description: biochemical. Also on record: native mass spectrometry lipid titration of ADP-trapped open outward-facing MsbA, sequential lipid binding model. Particulars: first lipid; MsbA trapped with ADP and VO4, open outward-facing; read-out: KD1. The method, then:
Lipids were prepared as previously described, in which lipids dissolved in chloroform were dried under nitrogen flow placed under vacuum overnight followed by dissolving in water. The concentration of MsbA was determined using a DC protein assay (BioRad) with bovine serum albumin as the standard. MsbA was incubated with lipids at varying concentrations and mixed with 200 mM ammonium acetate supplemented with 2x CMC lauryldimethylamine oxide (LDAO) at 1:1 volume ratio. Samples were incubated in the nano electrospray ionization source chamber for a minute to reach equilibrium prior to data acquisition. These samples analyzed on Orbitrap Exactive Plus EMR mass spectrometer (Thermo Scientific) operating at identical settings as described above. The mass spectra for each titration event were obtained in triplicate. The mass spectra were deconvoluted using UniDec[55] and the resulting peak intensities for apo and lipid-bound protein were determined. The relative abundance for each species was determined by dividing the peak intensity by the total intensity to convert to mole fraction for each independent experiment. For MsbA (P) binding the N^th lipid (Ln), we applied the following sequential lipid binding model: PLn−1+L⇔KAPLn where: KAn=PLn/[PLn−1]L To determine the impact of MsbA conformation on lipid binding affinity, analogous experiments were performed using MsbA trapped in an open, OF conformation with adenosine diphosphate (ADP) and [compound left out] (VO4). […] For example, in the presence of 0.4 μM of KDL, [compound left out]-trapped MsbA binds up to two lipids whereas the non-trapped protein binds only one KDL (Fig. 3b–c). […] The binding of POPC and POPE are reminiscent of that for MsbA partially loaded with copper(II). […] For MsbA with reduced copper(II) binding, additional 1 mM MgCl2 was added to all buffer and MsbA solution in the purification step using Ni-NTA beads. Copper(II) saturated MsbA was obtained by adding 20 uM copper (II) acetate then buffer exchanged using Bio-Spin column to remove excess copper(II). MsbA trapped by [compound left out] was obtained by adding ATP and MgCl2 to MsbA to reach the final concentration of 10 mM for both then incubating at room temperature for 10 min. After incubation, [compound left out] (pH 10) was added to reach final concentration of […] followed by incubation at 37 °C for 10 min. MsbA samples was buffer exchanged using Bio-Spin column to 200 mM ammonium acetate supplemented with 2x CMC C10E5 for native MS studies. To prepare MsbA samples for Cryo-EM studies, MsbA and trapped MsbA were preloaded with copper(II) then purified by Superdex 200 Increase 10/300 GL size exclusion column equilibrated with 200 mM NaCl, 20 mM HEPES and 2x CMC C10E5 without glycerol. […]

Data set [4] concerns the molecule itself. Description: native MS; MsbA in 200 mM ammonium acetate with 2x CMC C10E5; Orbitrap Exactive Plus EMR; partially or fully copper(II)-loaded, also trapped with ADP and vanadate.

T1 sequence (P60752 whole entry): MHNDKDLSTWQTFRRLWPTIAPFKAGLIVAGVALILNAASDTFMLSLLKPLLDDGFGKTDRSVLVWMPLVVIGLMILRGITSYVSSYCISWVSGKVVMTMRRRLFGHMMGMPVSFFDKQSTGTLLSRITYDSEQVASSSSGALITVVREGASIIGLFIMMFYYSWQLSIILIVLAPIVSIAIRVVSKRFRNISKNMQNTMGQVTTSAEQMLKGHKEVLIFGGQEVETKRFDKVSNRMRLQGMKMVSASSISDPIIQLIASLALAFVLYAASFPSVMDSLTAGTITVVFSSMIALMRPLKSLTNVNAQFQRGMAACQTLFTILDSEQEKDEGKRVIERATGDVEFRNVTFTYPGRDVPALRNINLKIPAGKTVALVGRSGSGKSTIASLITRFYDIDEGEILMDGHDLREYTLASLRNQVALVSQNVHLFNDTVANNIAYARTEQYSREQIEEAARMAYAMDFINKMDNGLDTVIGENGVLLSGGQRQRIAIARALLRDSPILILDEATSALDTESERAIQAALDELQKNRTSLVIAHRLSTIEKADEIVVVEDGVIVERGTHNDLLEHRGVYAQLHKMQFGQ

Take `CCCCCCCC/C=C\CCCCCCCC(=O)O[C@H](COC(=O)CCCCCCCCCCCCCCC)COP(=O)(O)OCCN` [POPE]: the Kd on MsbA [1] worked out at 12.4 ± 0.7 µM. `[O]=[V]([OH])([OH])[OH]` [vanadate]: the “cryoEM structure 3.6 Å and native MS” value on MsbA [2] (ADP-vanadate-trapped) is reported as “there is clear density for ADP·VO4 in the NBDs”. With `CCCCCCCC/C=C\CCCCCCCC(=O)O[C@H](COC(=O)CCCCCCCCCCCCCCC)COP(=O)(O)OCC(O)CO` (some centres unmarked) [POPG], the Kd on MsbA [1] was determined as 4.9 ± 0.4 µM; at MsbA [3], 2.6 ± 0.1 µM. Turning to `Nc1ncnc2c1ncn2[C@@H]1O[C@H](COP(=O)(O)OP(=O)(O)O)[C@@H](O)[C@H]1O` [ADP], the “cryoEM structure 3.6 Å and native MS” value on MsbA [2] (vanadate-trapped) is listed as “there is clear density for ADP·VO4 in the NBDs”. In the case of `CCCCCCCC/C=C\CCCCCCCC(=O)O[C@H](COC(=O)CCCCCCCCCCCCCCC)COP(=O)([O-])OCC[N+](C)(C)C` [POPC], the values for the Kd at MsbA [1] and on MsbA [3] were 20.4 ± 1.4 µM and 15.1 ± 0.5 µM, respectively. Consider `CCCCCCCC/C=C\CCCCCCCC(=O)O[C@H](COC(=O)CCCCCCCCCCCCCCC)COP(=O)(O)OC[C@H](N)C(=O)O` [POPS], for which the Kd on MsbA [3] was 2.3 ± 0.3 µM. On to `CCCCCCCC/C=C\CCCCCCCC(=O)O[C@H](COC(=O)CCCCCCCCCCCCCCC)COP(=O)(O)O` [POPA], for which the results for the Kd at MsbA [1] and on MsbA [3] were 14.7 ± 1.5 µM and 2.2 ± 0.01 µM, respectively.

B1: MsbA (ATP-binding cassette transporter MsbA, Escherichia coli) (natural protein)
chain: HNDKDLSTWQTFRRLWPTIAPFKAGLIVAGVALILNAASDTFMLSLLKPLLDDGFGKTDRSVLVWMPLVVIGLMILRGITSYVSSYCISWVSGKVVMTMRRRLFGHMMGMPVSFFDKQSTGTLLSRITYDSEQVASSSSGALITVVREGASIIGLFIMMFYYSWQLSIILIVLAPIVSIAIRVVSKRFRNISKNMQNTMGQVTTSAEQMLKGHKEVLIFGGQEVETKRFDKVSNRMRLQGMKMVSASSISDPIIQLIASLALAFVLYAASFPSVMDSLTAGTITVVFSSMIALMRPLKSLTNVNAQFQRGMAACQTLFTILDSEQEKDEGKRVIERATGDVEFRNVTFTYPGRDVPALRNINLKIPAGKTVALVGRSGSGKSTIASLITRFYDIDEGEILMDGHDLREYTLASLRNQVALVSQNVHLFNDTVANNIAYARTEQYSREQIEEAARMAYAMDFINKMDNGLDTVIGENGVLLSGGQRQRIAIARALLRDSPILILDEATSALDTESERAIQAALDELQKNRTSLVIAHRLSTIEKADEIVVVEDGVIVERGTHNDLLEHRGVYAQLHKMQFGQ
notes: MsbA, Escherichia coli, UniProt P60752; msbA gene amplified from E. coli genomic DNA into pCDF-1b (pCDF-MsbA), N-terminal TEV-cleavable His6; Homodimer; co-purifies with copper(II), one site per subunit at the N-terminus (Met-His-Asn-Asp); For cryo-EM it was loaded with copper(II), apo or trapped with ADP-vanadate, with KDL; also called wild-type MsbA; the transporter; source: E. coli (DE3) …
Broadly, the stoichiometry N is the number of molecules, sites or subunits per partner or assembly. With B1, the “stoichiometry N” value in data set [4] turned out to be 2.
